Results from PubChem BioAssay (NCI).
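At the GI50, growth is halved. The concentration for full growth arrest is given as TGI.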

Experiments:
Assay in all cases: DTP human tumour cell line panel, 384-well format
OVCAR-8 ovarian = tested on: OVCAR-8 ovarian
NCI-H226 lung = tested on: NCI-H226 lung
M14 melanoma = tested on: M14 melanoma
SK-MEL-5 melanoma = tested on: SK-MEL-5 melanoma
HS 578T breast = tested on: HS 578T breast
NCI-H460 NSCLC = tested on: NCI-H460 NSCLC
MDA-MB-231 breast = tested on: MDA-MB-231 breast
T-47D breast = tested on: T-47D breast
UACC-257 melanoma = tested on: UACC-257 melanoma
MCF7 breast = tested on: MCF7 breast
SK-MEL-28 melanoma = tested on: SK-MEL-28 melanoma
SF-268 CNS = tested on: SF-268 CNS
PC-3 prostate = tested on: PC-3 prostate
TK-10 renal = tested on: TK-10 renal
NCI-H322M lung = tested on: NCI-H322M lung
HCT-116 colon = tested on: HCT-116 colon
SF-295 CNS = tested on: SF-295 CNS
UACC-62 melanoma = tested on: UACC-62 melanoma
SK-MEL-2 melanoma = tested on: SK-MEL-2 melanoma
MALME-3M melanoma = tested on: MALME-3M melanoma
SF-539 CNS = tested on: SF-539 CNS
ACHN renal = tested on: ACHN renal
KM12 colon = tested on: KM12 colon
SN12C renal = tested on: SN12C renal
RXF 393 renal = tested on: RXF 393 renal
786-0 renal = tested on: 786-0 renal
OVCAR-4 ovarian = tested on: OVCAR-4 ovarian
MDA-MB-468 breast = tested on: MDA-MB-468 breast

SMILES: CC(C)N(C[C@H]1O[C@@H](n2cnc3c(N)ncnc32)[C@H](O)[C@@H]1O)C1CC(CCc2nc3ccc(C(C)(C)C)cc3[nH]2)C1 (stereo not given in full)
- TGI (OVCAR-8 ovarian): > 100 µM
- GI50 (NCI-H226 lung): > 100 µM
- TGI (NCI-H226 lung): > 100 µM
- GI50 (M14 melanoma): 20 µM
- TGI (M14 melanoma): 37.1 µM
- GI50 (SK-MEL-5 melanoma): 23.9 µM
- TGI (SK-MEL-5 melanoma): 69.4 µM
- GI50 (HS 578T breast): 20.5 µM
- TGI (HS 578T breast): 37 µM
- GI50 (NCI-H460 NSCLC): 20.3 µM
- TGI (NCI-H460 NSCLC): 43 µM
- GI50 (MDA-MB-231 breast): 35.4 µM
- TGI (MDA-MB-231 breast): > 100 µM
- GI50 (T-47D breast): 39 µM
- TGI (T-47D breast): > 100 µM
- GI50 (UACC-257 melanoma): 18.5 µM
- TGI (UACC-257 melanoma): 33.4 µM
- GI50 (MCF7 breast): 20 µM
- TGI (MCF7 breast): 45.2 µM
- GI50 (SK-MEL-28 melanoma): 18 µM
- TGI (SK-MEL-28 melanoma): 31.9 µM
- GI50 (SF-268 CNS): 22.9 µM
- TGI (SF-268 CNS): 47.9 µM
- GI50 (PC-3 prostate): 47 µM
- TGI (PC-3 prostate): > 100 µM
- GI50 (TK-10 renal): 83.9 µM
- TGI (TK-10 renal): > 100 µM
- GI50 (NCI-H322M lung): > 100 µM
- TGI (NCI-H322M lung): > 100 µM
- GI50 (HCT-116 colon): 41.9 µM
- TGI (HCT-116 colon): > 100 µM
- GI50 (SF-295 CNS): > 100 µM
- TGI (SF-295 CNS): > 100 µM
- GI50 (UACC-62 melanoma): 16.9 µM
- TGI (UACC-62 melanoma): 30.7 µM
- GI50 (SK-MEL-2 melanoma): 15.8 µM
- TGI (SK-MEL-2 melanoma): 29.3 µM
- GI50 (MALME-3M melanoma): 18 µM
- TGI (MALME-3M melanoma): 32 µM
- GI50 (SF-539 CNS): 43.9 µM
- TGI (SF-539 CNS): > 100 µM
- GI50 (ACHN renal): > 100 µM
- TGI (ACHN renal): > 100 µM
- GI50 (KM12 colon): 39 µM
- TGI (KM12 colon): > 100 µM
- GI50 (SN12C renal): > 100 µM
- TGI (SN12C renal): > 100 µM
- GI50 (RXF 393 renal): 25.3 µM
- TGI (RXF 393 renal): 79 µM
- GI50 (786-0 renal): > 100 µM
- TGI (786-0 renal): > 100 µM
- GI50 (OVCAR-4 ovarian): 79.9 µM
- TGI (OVCAR-4 ovarian): > 100 µM
- GI50 (MDA-MB-468 breast): 24.8 µM
- TGI (MDA-MB-468 breast): 50.1 µM
